In brackets after ≈: the same amount, converted by molar mass. Activity calls are given as the source filed them. No cut-off for these calls is given here.
Tests used:
[1] = test system: Klebsiella pneumoniae; experiment: Antimicrobial activity against Klebsiella pneumoniae 9-1 assessed as inhibition of visible growth of bacteria incubated for 20 hrs by broth microdilution method; type: functional
[2] = test system: Staphylococcus aureus; experiment: Disruption of preformed biofilm in Staphylococcus aureus ATCC 29213 assessed as increase in red fluorescence at 0.5 to 2 times of MIC measured after 72 hrs by SYTO-9/PI staining based CLSM imaging analysis; type: functional, organism-based
[3] = Cytotoxicity against human HEp-2 cells assessed as reduction in cell viability incubated for 48 hrs by CCK8 assay; type: toxicity, cell-based
[4] = Cytotoxicity against human Caco-2 cells assessed as cell viability at 2 times of MIC incubated for 48 hrs by CCK8 assay (reference value: 99.54 %); type: toxicity, cell-based; conditions: read-out: Activity
[5] = Acute toxicity in ICR mouse model assessed as effect on animal survival at 25 to 100 mg/kg, IG administered for 7 days; type: organism-based; conditions: in vivo, po, 168 h, dose 25-100 mg/kg, time 7 day
[6] = test system: Salmonella enteritidis; experiment: Antimicrobial activity against Salmonella enteritis S1 assessed as inhibition of visible growth of bacteria incubated for 20 hrs by broth microdilution method; type: functional, Salmonella enterica subsp. enterica serovar Enteritidis; conditions: Salmonella enterica
[7] = Metabolic stability in rat liver microsomes assessed as hepatic extraction ratio at 100 uM preincubated for 5 mins followed by NADPH addition and measured upto 60 mins by LC-MS/MS analysis; type: ADME, Microsome; conditions: time < 65 min, read-out: ERH
[8] = Cytotoxicity against human HEp-2 cells assessed as cell viability at 16 times of MIC incubated for 48 hrs by CCK8 assay (reference value: 100 %); type: toxicity, cell-based; conditions: read-out: Activity
[9] = Metabolic stability in human liver microsomes assessed as intrinsic clearance at 100 uM preincubated for 5 mins followed by NADPH addition and measured upto 60 mins by LC-MS/MS analysis; type: ADME, Microsome; conditions: time < 65 min, read-out: CLH
[10] = Cytotoxicity against human Caco-2 cells assessed as cell viability at 8 times of MIC incubated for 48 hrs by CCK8 assay (reference value: 99.54 %); type: toxicity, cell-based; conditions: read-out: Activity
[11] = test system: Cell membrane; experiment: Disruption of cell membrane integrity in Staphylococcus aureus ATCC 29213 assessed as increase in red fluorescence intensity incubated for 4 hrs by SYTO-9/PI staining based LIVE/DEAD Baclight bacterial viability assay; type: subcellular
[12] = test system: Enterococcus faecalis; experiment: Antimicrobial activity against Enterococcus faecalis JH2-2 assessed as inhibition of visible growth of bacteria incubated for 20 hrs by broth microdilution method; type: functional
[13] = Hemolytic activity in Kunming mouse erythrocytes measured after 1 hrs by absorbance based assay; type: toxicity, cell-based, Erythrocyte
[14] = test system: Staphylococcus aureus; experiment: Bactericidal activity against Staphylococcus aureus ATCC 29213 assessed as bacterial killing at 8 times of MIC measured within 12 hrs by time-kill kinetics assay; type: functional, organism-based
[15] = test system: Enterococcus faecium; experiment: Antimicrobial activity against Enterococcus faecium MC38 harboring erythromycin resistance rRNA methylase B and oxazolidinone-phenicol transferable resistance gene assessed as inhibition of visible growth of bacteria incubated for 20 hrs by broth microdilution method; type: functional
[16] = test system: Staphylococcus aureus; experiment: Antibiofilm activity against Staphylococcus aureus ATCC 29213 assessed as eradication of preformed biofilm by measuring residual biomass at 2 microg/ml measured after 72 hrs by crystal violet staining based analysis relative to control; type: functional; conditions: dose 2 µg/ml
[17] = test system: Staphylococcus aureus; experiment: Bactericidal activity against Staphylococcus aureus ATCC 29213 assessed as decrease in bacterial number measured within 12 hrs by time-kill kinetics assay; type: functional, organism-based
[18] = Metabolic stability in human liver microsomes assessed as hepatic extraction ratio at 100 uM preincubated for 5 mins followed by NADPH addition and measured upto 60 mins by LC-MS/MS analysis; type: ADME, Microsome; conditions: time < 65 min, read-out: ERH
[19] = Hemolytic activity in Kunming mouse erythrocytes assessed as hemolysis at 16 times of MIC measured after 1 hrs by absorbance based assay relative to control; type: toxicity, cell-based, Erythrocyte; conditions: read-out: Activity
[20] = Metabolic stability in human liver microsomes assessed as half-life at 100 uM preincubated for 5 mins followed by NADPH addition and measured upto 60 mins by LC-MS/MS analysis; type: ADME, Microsome; conditions: time < 65 min
[21] = Metabolic stability in rat liver microsomes assessed as intrinsic clearance at 100 uM preincubated for 5 mins followed by NADPH addition and measured upto 60 mins by LC-MS/MS analysis; type: ADME, Microsome; conditions: time < 65 min, read-out: CLH
[22] = Metabolic stability in mouse liver microsomes assessed as half-life at 100 uM preincubated for 5 mins followed by NADPH addition and measured upto 60 mins by LC-MS/MS analysis; type: ADME, Microsome; conditions: time < 65 min
[23] = Metabolic stability in mouse liver microsomes assessed as hepatic extraction ratio at 100 uM preincubated for 5 mins followed by NADPH addition and measured upto 60 mins by LC-MS/MS analysis; type: ADME, Microsome; conditions: time < 65 min, read-out: ERH
[24] = Acute toxicity in ICR mouse model assessed as change in spleen pathology at 25 to 100 mg/kg, IG administered for 7 days by H and E staining based analysis; type: organism-based; conditions: in vivo, po, 168 h, dose 25-100 mg/kg, time 7 day
[25] = test system: Staphylococcus aureus; experiment: Antimicrobial activity against Staphylococcus aureus YZSA-24 harboring erythromycin resistance rRNA methylase C and methicillin resistance gene resistance locus assessed as inhibition of visible growth of bacteria incubated for 20 hrs by broth microdilution method; type: functional
[26] = Acute toxicity in ICR mouse model assessed as change in body weight at 25 to 100 mg/kg, IG administered for 7 days; type: organism-based; conditions: in vivo, po, 168 h, dose 25-100 mg/kg, time 7 day
[27] = test system: Pseudomonas aeruginosa; experiment: Antimicrobial activity against Pseudomonas aeruginosa PA14 assessed as inhibition of visible growth of bacteria incubated for 20 hrs by broth microdilution method; type: functional
[28] = test system: Staphylococcus aureus; experiment: Antimicrobial activity against Staphylococcus aureus ATCC 29213 assessed as inhibition of visible growth of bacteria incubated for 20 hrs by broth microdilution method; type: functional
[29] = test system: Cell membrane; experiment: Disruption of cell membrane integrity in Staphylococcus aureus ATCC 29213 assessed as appearance of shriveled surface at 0.5 to 2 times of MIC by scanning electron microscopic analysis; type: subcellular
[30] = Cytotoxicity against human Caco-2 cells assessed as cell viability at 4 times of MIC incubated for 48 hrs by CCK8 assay (reference value: 99.54 %); type: toxicity, cell-based; conditions: read-out: Activity
[31] = Cytotoxicity against human Caco-2 cells assessed as reduction in cell viability incubated for 48 hrs by CCK8 assay; type: toxicity, cell-based
[32] = test system: Staphylococcus aureus; experiment: Antibacterial activity against methicillin-resistant Staphylococcus aureus YZSA-24 infected in cyclophosphamide-induced neutrophil depleted female ICR mouse model of skin infection assessed as log reduction in bacterial load at 1 %, TOP preadministered with cyclophosphamide for 5 days followed by bacterial administration and measured after 25 hrs of compound administration relative to ampicillin group; type: functional
[33] = test system: Staphylococcus aureus; experiment: Antimicrobial activity against Staphylococcus aureus YZSA-21 harboring erythromycin resistance rRNA methylase C assessed as inhibition of visible growth of bacteria incubated for 20 hrs by broth microdilution method; type: functional
[34] = Metabolic stability in mouse liver microsomes assessed as intrinsic clearance at 100 uM preincubated for 5 mins followed by NADPH addition and measured upto 60 mins by LC-MS/MS analysis; type: ADME, Microsome; conditions: time < 65 min, read-out: CLH
[35] = Acute toxicity in ICR mouse model assessed as change in lung pathology at 25 to 100 mg/kg, IG administered for 7 days by H and E staining based analysis; type: organism-based; conditions: in vivo, po, 168 h, dose 25-100 mg/kg, time 7 day
[36] = test system: Staphylococcus aureus; experiment: Antimicrobial activity against Staphylococcus aureus YZSA-15 harboring erythromycin resistance rRNA methylase C and vancomycin resistance locus assessed as inhibition of visible growth of bacteria incubated for 20 hrs by broth microdilution method; type: functional
[37] = Cytotoxicity against human HEp-2 cells assessed as cell viability at 1 time of MIC incubated for 48 hrs by CCK8 assay (reference value: 100 %); type: toxicity, cell-based; conditions: read-out: Activity

Compound: CC1C/C(=C\c2ccc(-c3ccc(Cl)c(C(F)(F)F)c3)s2)c2nc3ccccc3c(C(=O)O)c2C1 (racemic)
- MIC [1]: > 128 µg/mL
- Activity [2]: Active
- CC50 at 48 h [3]: 14.7 µg/mL (≈ 28.5 µM)
- viability at 48 h, 2 times of MIC [4]: 96.6%
- Activity [5]: Non-toxic
- MIC [6]: 128 µg/mL (≈ 249 µM)
- hepatic extraction ratio at 1 h, 100 µM [7]: < 0.21
- viability at 48 h, 16 times of MIC [8]: 44.5%
- microsomal CLint at 100 µM [9]: < 7.5 µL/min/mg
- viability at 48 h, 8 times of MIC [10]: 72.8%
- Activity [11]: Dose-dependent-effect
- MIC [12]: 1 µg/mL (≈ 1.95 µM)
- HC50 at 1 h [13]: 13.3 µg/mL
- Activity [14]: Active
- MIC [15]: 2 µg/mL (≈ 3.89 µM)
- Activity [16]: 31.4%
- Activity [17]: Dose-dependent-effect
- hepatic extraction ratio at 1 h, 100 µM [18]: < 0.27
- hemolysis at 1 h, 16 times of MIC [19]: 74%
- half-life at 100 µM [20]: > 185 min
- microsomal CLint at 100 µM [21]: < 7.5 µL/min/mg
- half-life at 100 µM [22]: > 185 min
- hepatic extraction ratio at 1 h, 100 µM [23]: < 0.26
- Activity [24]: Non-toxic
- MIC [25]: 1 µg/mL (≈ 1.95 µM)
- Activity [26]: Non-toxic
- MIC [27]: > 128 µg/mL
- MIC [28]: 1 µg/mL (≈ 1.95 µM)
- Activity [29]: Active
- viability at 48 h, 4 times of MIC [30]: 92.9%
- CC50 at 48 h [31]: 21.9 µg/mL (≈ 42.7 µM)
- Activity [32]: 1.21 log10CFU/ml
- MIC [33]: 1 µg/mL (≈ 1.95 µM)
- microsomal CLint at 100 µM [34]: < 7.5 µL/min/mg
- Activity [35]: Non-toxic
- MIC [36]: 1 µg/mL (≈ 1.95 µM)
- viability at 48 h, 1 time of MIC [37]: 96.9%

From ChEMBL document CHEMBL6078677, “Discovery and optimization of tetrahydroacridine derivatives as a novel class of antibiotics against multidrug-resistant Gram-positive pathogens by targeting type I signal peptidase and disrupting bacterial membrane” (Eur J Med Chem, 2025)
